Source: ChEMBL document CHEMBL4359924, “Discovery of a novel 3,4-dimethylcinnoline carboxamide M4 positive allosteric modulator (PAM) chemotype via scaffold hopping” (Bioorg Med Chem Lett, 2019)

Key:
[1] = target: Muscarinic acetylcholine receptor M4 (Homo sapiens) (UniProt P08173); experiment: Positive allosteric modulation of human M4 receptor expressed in CHO cells co-expressing Gqi5 assessed as increase in acetylcholine-induced calcium mobilization incubated with EC20 ACh for 140 secs and subsequent EC80 Ach addition further incubated for 120 secs by Fluo-4-AM dye based fluorescence …
[2] = Intrinsic clearance in human microsomes; type: ADME, Microsome
[3] = Fraction unbound in rat brain; type: ADME, tissue-based
[4] = Brain to plasma partition coefficient, Kp of the compound in Sprague-Dawley rat at 0.2 mg/kg, iv measured for 0.25 hrs; type: ADME, organism-based; settings: brain and plasma
[5] = Intrinsic clearance in rat microsomes; type: ADME, Microsome
[6] = Fraction unbound in human plasma; type: ADME, cell-free
[7] = Fraction unbound in rat plasma; type: ADME, cell-free
[8] = Unbound brain to plasma concentration ratio in Sprague-Dawley rat at 0.2 mg/kg, iv measured for 0.25 hrs; type: ADME, organism-based; settings: brain and plasma, read-out: K(p,uu,brain)

Sequence of Muscarinic acetylcholine receptor M4 (Homo sapiens) (P08173 whole entry, looked up): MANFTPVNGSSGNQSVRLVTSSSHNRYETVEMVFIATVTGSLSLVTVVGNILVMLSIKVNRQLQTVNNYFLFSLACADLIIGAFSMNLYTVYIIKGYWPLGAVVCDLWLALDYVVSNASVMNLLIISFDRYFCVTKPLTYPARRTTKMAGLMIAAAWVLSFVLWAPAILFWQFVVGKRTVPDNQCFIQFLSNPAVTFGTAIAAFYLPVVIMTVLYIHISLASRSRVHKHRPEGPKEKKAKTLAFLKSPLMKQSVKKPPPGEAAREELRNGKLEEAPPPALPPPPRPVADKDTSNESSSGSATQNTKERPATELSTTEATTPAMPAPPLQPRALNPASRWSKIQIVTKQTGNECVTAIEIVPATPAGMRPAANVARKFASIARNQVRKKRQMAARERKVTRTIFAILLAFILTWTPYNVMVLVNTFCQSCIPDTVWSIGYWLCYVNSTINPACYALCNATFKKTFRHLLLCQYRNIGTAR

Cc1nnc2ccc(C(=O)NC3CN(c4ncc(C5CC5)cc4Cl)C3)cc2c1C
Emax [1]: 77%

Cc1nnc2ccc(C(=O)NC3CN(c4ncc(C(F)(F)F)cc4Cl)C3)cc2c1C
Emax [1]: 76%

Cc1nnc2ccc(C(=O)NC3CN(c4ncc(Cl)cc4F)C3)cc2c1C
CLint scaled [2]: 54 mL/min/kg | fraction unbound [3]: 0.009 | Kp at 0.25 h [4]: 0.03 | Emax [1]: 82% | CLint scaled [5]: 12 mL/min/kg | fraction unbound [6]: 0.032 | fraction unbound [7]: 0.026 | Kp uu at 0.25 h [8]: 0.09

Cc1nnc2ccc(C(=O)NC3CN(c4cccc(C(F)(F)F)n4)C3)cc2c1C
Emax [1]: 64%

Cc1nnc2ccc(C(=O)NC3CN(c4ncc(C(F)(F)F)cn4)C3)cc2c1C
Emax [1]: 77%

Cc1nnc2ccc(C(=O)NC3CN(c4cccc(F)n4)C3)cc2c1C
Emax [1]: 84%

Cc1nnc2ccc(C(=O)NC3CN(c4cc(Cl)ncc4Cl)C3)cc2c1C
CLint scaled [2]: 60 mL/min/kg | fraction unbound [3]: 0.036 | Kp at 0.25 h [4]: 0.03 | Emax [1]: 92% | CLint scaled [5]: 32 mL/min/kg | fraction unbound [6]: 0.06 | fraction unbound [7]: 0.017 | Kp uu at 0.25 h [8]: 0.06

Cc1nnc2ccc(C(=O)NC3CN(c4ncc(F)cc4Cl)C3)cc2c1C
CLint scaled [2]: 79 mL/min/kg | fraction unbound [3]: 0.036 | Kp at 0.25 h [4]: 0.12 | Emax [1]: 80% | CLint scaled [5]: 17 mL/min/kg | fraction unbound [6]: 0.048 | fraction unbound [7]: 0.015 | Kp uu at 0.25 h [8]: 0.29

Cc1nnc2ccc(C(=O)NC3CN(c4cccc(Cl)n4)C3)cc2c1C
Emax [1]: 77%

Cc1nnc2ccc(C(=O)NC3CN(c4cnc(C5CC5)cn4)C3)cc2c1C
Emax [1]: 80%

Cc1nnc2ccc(C(=O)NC3CN(c4ncccc4F)C3)cc2c1C
Emax [1]: 83%

COc1cc(N2CC(NC(=O)c3ccc4nnc(C)c(C)c4c3)C2)c(Cl)cn1
CLint scaled [2]: 34 mL/min/kg | fraction unbound [3]: 0.023 | Kp at 0.25 h [4]: 0.09 | Emax [1]: 74% | CLint scaled [5]: 17 mL/min/kg | fraction unbound [6]: 0.038 | fraction unbound [7]: 0.012 | Kp uu at 0.25 h [8]: 0.02

Cc1nnc2ccc(C(=O)NC3CN(c4ccc(F)c(F)c4)C3)cc2c1C
CLint scaled [2]: 50 mL/min/kg | fraction unbound [3]: 0.022 | Kp at 0.25 h [4]: < 0.05 | Emax [1]: 82% | CLint scaled [5]: 26 mL/min/kg | fraction unbound [6]: 0.051 | fraction unbound [7]: 0.002 | Kp uu at 0.25 h [8]: < 0.56

Cc1nnc2ccc(C(=O)NC3CN(c4ncc(C#N)cc4Cl)C3)cc2c1C
CLint scaled [2]: 63 mL/min/kg | fraction unbound [3]: 0.042 | Kp at 0.25 h [4]: 0.04 | Emax [1]: 72% | CLint scaled [5]: 17 mL/min/kg | fraction unbound [6]: 0.03 | fraction unbound [7]: 0.008 | Kp uu at 0.25 h [8]: 0.21

Cc1nnc2ccc(C(=O)NC3CN(c4ccc(C#N)cn4)C3)cc2c1C
Emax [1]: 81%

Cc1nnc2ccc(C(=O)NC3CN(c4ccc(Cl)cn4)C3)cc2c1C
Emax [1]: 73%

Cc1nnc2ccc(C(=O)NC3CN(c4ncccc4Cl)C3)cc2c1C
Emax [1]: 84%

Cc1nnc2ccc(C(=O)NC3CN(c4ccc(OC(F)F)nc4)C3)cc2c1C
Emax [1]: 81%

Cc1nnc2ccc(C(=O)NC3CN(c4ncc(OC(C)C)cn4)C3)cc2c1C
Emax [1]: 88%
